The text below walks through data of EPA's ToxValDB 9.5 (doi:10.2903/j.efsa.2018.5307).

The test system of one data set is Cyprinus carpio. As to conditions: acute; duration: 96 hours; mortality.
The test system of another data set is Tagia sp. The conditions noted are these: chronic/long-term; reproduction.
Another data set concerns Daphnia magna. As to conditions: chronic/long-term; duration: 23 days; reproduction.
In another data set the test system is Apis mellifera. The conditions noted are these: acute, mortality.
For another data set, the system named is Oryctolagus sp. The conditions noted are these: developmental; development.
Another data set relates to Pimephales promelas. The conditions noted are these: chronic/long-term; development.
The test system of a further data set is Typhlodromus pyri. The experiment in a line: LR50; higher = less toxic. As to conditions: acute; mortality.

As to `CCOP(=O)=O.CCOP(=O)=O.CCOP(=O)=O.[Al+3]` [Fosetyl aluminum], the LC50 – broadly, the concentration lethal to half of the exposed cells or organisms – with Cyprinus carpio is > 100 µg/mL. Besides, the NOEC came to 164 mg/kg in the data set with Tagia sp., 10.1 mg/L in the data set on Daphnia magna and 0.213 mg/L in the data set with Pimephales promelas. Besides, the LD50 is > 100 µg/piece with Apis mellifera (dermal); > 140 µg/piece in the data set with Apis mellifera (oral, unspecified); > 7080 mg/kg-day in the data set on Rattus norvegicus (acute, oral, mortality); > 2000 mg/kg-day in the data set with Colinus virginianus (acute, oral, mortality). Besides, the NOAEL (in general, the highest tested level that showed no adverse finding) in the data set with Rattus norvegicus (reproduction developmental, body weight) is 482 mg/kg-day; in the data set on Oryctolagus sp. it was 100 mg/kg-day. The NOEL in the data set on Colinus virginianus (reproduction developmental) turned out to be 216 mg/kg-day. For the same compound, in the data set with Typhlodromus pyri, the LR50 is > 8400 g/ha.
